The results in this text go back to patent publication US11246844B2, “Methods for inhibiting conversion of choline to trimethylamine (TMA)” (The Procter & Gamble Company, priority 2016, dated 2022).

One assay deals with plasma TMAO. In words: Preclinical screening method: plasma TMAO in mice on 1% Choline Added diet (Example 3). The class given is in vivo, mice (C57bl/6). The following applies: Mus musculus, read-out: Remaining plasma TMAO as percentage of plasma TMAO in same day vehicle control (% of control remaining). The procedure:
Starting at day 0, mice (C57bl/6, ˜19 g, 10 wk of age; n=5/group) were maintained in accordance with the NIH guidelines in a 12:12 hr light:dark cycle and provided with 1% Choline Added diet (Envigo custom formulation prepared, similar to Teklad Global Rodent Diet 2018) ad libitum. Concurrent with introduction of the diet mice were gavaged once daily orally using a 1.5″ 22G ball-tip curved feeding needle to administer compound in 200 μl or less of water at one or multiple of the dose 0, 1.0, 3.1, 10, 31, 100 or 310 mg/kg/day. Urine was collected once daily in the morning. Animals were restrained by hand and bladder was expressed by gentle palpation of the pelvic region. Aliquots of 1-5 μl of urine were centrifuged at 1,300×g for 5 min in a 1.5 mL conical bottom tube with a snap top, to precipitate any potential cellular debris, and supernatants were transferred to a clean screw-cap tube with o-ring seal and stored at −80° C. until analysis. Sixty microliters or less of blood was collected at 20 hours post gavage, into a heparinized capillary tube. Blood was kept at 4° C., then spun using a centrifuge (5 min in centrifuge designed to capillary tubes) to separate plasma and hematocrit within 4 hours after collection. Plasma samples were stored at −80° C.
For measurement of TMA in plasma, samples were acidified (10 mM HCl final) prior to storage at −80° C. TMAO and trimethylamine (TMA) and their d9-isotopologues were quantified using stable isotope dilution HPLC with on-line electrospray ionization tandem mass spectrometry ([…]) methods as described in (Wang Z, Klipfell E, Bennett B J, et al. (2011) Gut flora metabolism of phosphatidylcholine promotes cardiovascular disease. Nature 472:57-63) using d4(1,1,2,2)-choline, d3(methyl)-TMAO, and d3(methyl)-TMA as internal standards. Concentrations of TMAO in urine were adjusted for urinary dilution by analysis of urine creatinine concentration. Samples were taken at different days during the studies and different doses were administered to avoid side effects at higher doses of some of the compounds.

Assay [1] relates to Proteus mirabilis 29906 (Pm) lysate. In words: Inhibition of conversion of choline to TMA in Proteus mirabilis lysate (Example 2). It counts as biochemical. The conditions noted are these: read-out: TMA Inhibition (IC50, mol/L).
Where [2] appears, read: 24 h, mice, oral gavage once daily, 310 mg/kg/day, day 1, blood 20 hours post gavage.
[3] abbreviates: Pm lysate 1.5 mg/mL protein, 50 μM d9-choline chloride, 37° C., two hours, d9-TMA by LC-MS/MS.

Each structure is given as a SMILES string. Counter-ions that a name gives are not always drawn. Like-named read-outs stand apart in the source and are kept apart here.

Turning to `C#CC[N+](C)(C)CC(=O)O`, in the assay on plasma TMAO (72 h, mice, oral gavage once daily, 100 mg/kg/day, day 3, blood 20 hours post gavage), the response vs control in vivo at 100 mg/kg/day stood at 6.06%.

Take `C#CC[N+](C)(C)CC(=C)C(=O)OC` [2-(methoxycarbonyl)-N,N-dimethyl-N-(prop-2-yn-1-yl)prop-2-en-1-aminium bromide]: the response vs control in vivo at 310 mg/kg/day in the assay on plasma TMAO (setting [2]) was determined as 69%.

For the compound `C#CC[N+](C)(C)CC(=C)C#N` [2-cyano-N,N-dimethyl-N-(prop-2-yn-1-yl)prop-2-en-1-aminium bromide], in the assay on plasma TMAO (setting [2]), the response vs control in vivo at 310 mg/kg/day was determined as 46.2%.

As for `C#CC[N+](C)(C)CCCCC(=O)O` [4-carboxy-N,N-dimethyl-N-(prop-2-yn-1-yl)butan-1-aminium bromide], the response vs control in vivo at 310 mg/kg/day with plasma TMAO (setting [2]) was determined as 64.4%.

For the compound `C#CC[N+](C)(C)C` [ID 33, trimethyl(prop-2-ynyl)ammonium iodide], the response vs control in vivo at 310 mg/kg/day in the assay with plasma TMAO (po, 72 h) was 0.41%.

In the case of `C#CC[N+](C)(C)CCl` [ID 40, chloromethyl-dimethyl-prop-2-ynyl-ammonium iodide], the response vs control in vivo at 310 mg/kg/day in the assay on plasma TMAO (po, 24 h) amounted to 0.43%.

As for `C#CC[N+](C)(C)CC(=C)C(=O)OC` [compound 1, 2-(methoxycarbonyl)-N,N-dimethyl-N-(prop-2-yn-1-yl)prop-2-en-1-aminium], the IC50 in assay [1] (setting [3]) worked out at 13.2 nM.

For the compound `C#CC[N+](C)(C)CCCCC(=O)O` [compound 2, 4-carboxy-N,N-dimethyl-N-(prop-2-yn-1-yl)butan-1-aminium], in assay [1] (setting [3]), the IC50 was 110 nM.

In the case of `COC(C[N+](C)(C)CCO)OC` [compound 3, N-(2-hydroxyethyl)-2,2-dimethoxy-N,N-dimethylethan-1-aminium], in assay [1] (setting [3]), the IC50 was 2400 nM.

As for `C#CC[N+](C)(C)CC(OC)OC` [compound 4, N-(2,2-dimethoxyethyl)-N,N-dimethylprop-2-yn-1-aminium], the IC50 in assay [1] (setting [3]) came out at 525 nM.

Regarding `C#CC[N+](C)(C)CC(O)O` [compound 5, N-(2,2-dihydroxyethyl)-N,N-dimethylprop-2-yn-1-aminium], the IC50 in assay [1] (setting [3]) turned out to be 5310 nM.

In the case of `C#CC[N+](C)(C)CC(OCC)OCC` [compound 6, N-(2,2-diethoxyethyl)-N,N-dimethylprop-2-yn-1-aminium], the IC50 in assay [1] (setting [3]) was found to be 88200 nM.

For the compound `C#CC[N+](C)(C)CCCCCC(=O)O` [compound 7, 5-carboxy-N,N-dimethyl-N-(prop-2-yn-1-yl)pentan-1-aminium], in assay [1] (setting [3]), the IC50 worked out at 216 nM.

On to `C#CC[N+](C)(C)CC(=C)C(=O)O` [compound 8, 2-carboxy-N,N-dimethyl-N-(prop-2-yn-1-yl)prop-2-en-1-aminium bromide], for which the IC50 in assay [1] (setting [3]) turned out to be 76.4 nM.

As for `C#CC[N+](C)(C)CC(N)=O` [compound 9, N-(2-amino-2-oxoethyl)-N,N-dimethylprop-2-yn-1-aminium], the IC50 in assay [1] (setting [3]) worked out at 130 nM.

As to `C=C(C[N+](C)(C)CCO)C(=O)O` [compound 10, 2-carboxy-N-(2-hydroxyethyl)-N,N-dimethylprop-2-en-1-aminium], the IC50 in assay [1] (setting [3]) was determined as 15500 nM.

`C=C(C#N)C[N+](C)(C)CCO` [compound 11, 2-cyano-N-(2-hydroxyethyl)-N,N-dimethylprop-2-en-1-aminium]: the IC50 in assay [1] (setting [3]) was found to be 63.1 nM.

`C#CC[N+](C)(C)CC(=C)C#N` [compound 12, 2-cyano-N,N-dimethyl-N-(prop-2-yn-1-yl)prop-2-en-1-aminium]: in assay [1] (setting [3]), the IC50 was 4.74 nM.

`C#CC[N+](C)(C)CC(=O)C(=O)OC` [compound 13, N-(3-methoxy-2,3-dioxopropyl)-N,N-dimethylprop-2-yn-1-aminium]: in assay [1] (setting [3]), the IC50 came to 63.1 nM.

With `C=C(C#N)C[N+]1(C)C2CCCC1CC2` (stereo not shown) [compound 14, 8-(2-cyanoallyl)-8-methyl-8-azabicyclo[3.2.1]octan-8-ium], the IC50 in assay [1] (setting [3]) came to 44600 nM.

With `C#CC[N+](C)(C)CCN` [compound 15, 2-aminoethyl-dimethyl-prop-2-ynyl-ammonium, hydrochloride], in assay [1] (setting [3]), the IC50 is 3010 nM.

As to `C#CCC[N+](C)(C)CCO` [compound 16, N-(2-hydroxyethyl)-N,N-dimethylbut-3-yn-1-aminium], the IC50 in assay [1] (setting [3]) came to 15700 nM.

Take `C#CC[N+]1(C)CCC(O)CC1` (stereo not shown) [compound 17, 4-hydroxy-1-methyl-1-(prop-2-yn-1-yl)piperidin-1-ium]: the IC50 in assay [1] (setting [3]) turned out to be 124000 nM.

Take `C#CC[N+]1(C)C2CCCC1CC2` (stereo not shown) [compound 18, 8-methyl-8-(prop-2-yn-1-yl)-8-azabicyclo[3.2.1]octan-8-ium]: in assay [1] (setting [3]), the IC50 was 1610 nM.

On to `C#CC[N+](C)(C)CC(=O)O` [compound 19, N-(carboxymethyl)-N,N-dimethylprop-2-yn-1-aminium], for which, in assay [1] (setting [3]), the IC50 was 21.6 nM.

For the compound `C#CC[N+](C)(C)CC(=O)OC` [compound 20, N-(2-methoxy-2-oxoethyl)-N,N-dimethylprop-2-yn-1-aminium], the IC50 in assay [1] (setting [3]) is 44.1 nM.

Regarding `C#CC[N+](C)(C)CCO` [compound 21, N-(2-hydroxyethyl)-N,N-dimethyl-2-propyn-1-aminium], in assay [1] (setting [3]), the IC50 is 30.4 nM.

On to `CC#CC[N+](C)(C)CCO` [compound 22, N-(2-hydroxyethyl)-N,N-dimethyl-2-butyn-1-aminium], for which, in assay [1] (setting [3]), the IC50 worked out at 152 nM.

For `C=CC[N+](C)(C)CC=C` [compound 23, N,N-dimethyl-N-2-propenyl-2-propen-1-aminium], in assay [1] (setting [3]), the IC50 amounted to 3030 nM.

On to `C[N+](C)(CCO)CC1CO1` (stereo not shown) [compound 24, 2-hydroxy-N,N-dimethyl-N-(oxiran-2-ylmethyl)ethan-1-aminium], for which the IC50 in assay [1] (setting [3]) was 1940 nM.

`C=CC[N+](C)(C)CCO` [compound 25]: the IC50 in assay [1] (setting [3]) came out at 6710 nM.

`C#CC[N+](CC#C)(CC#C)CCO` [compound 26, N-(2-hydroxyethyl)-N,N-di(prop-2-yn-1-yl)prop-2-yn-1-aminium]: the IC50 in assay [1] (setting [3]) is 31700 nM.

For `C=CC(=O)OCC[N+](C)(C)C` [compound 27, 2-(acryloyloxy)-N,N,N-trimethylethan-1-aminium], the IC50 in assay [1] came out at 68700 nM.

As to `C#CC[N+](C)(C)CCCO` [compound 28, N-(3-hydroxypropyl)-N,N-dimethylprop-2-yn-1-aminium], the IC50 in assay [1] (setting [3]) came out at 117000 nM.

Consider `C[N+](C)(CC#N)CCO` [compound 29, N-(cyanomethyl)-2-hydroxy-N,N-dimethylethan-1-aminium], for which, in assay [1] (setting [3]), the IC50 stood at 335000 nM.

For `C=CC[N+](CC=C)(CC=C)CC=C` [compound 30, N,N,N-tri(prop-2-en-1-yl)prop-2-en-1-aminium], the IC50 in assay [1] (setting [3]) worked out at 694000 nM.

In the case of `C#CC[N+](C)(C)CC(=O)O` [compound 31], in assay [1] (setting [3]), the IC50 turned out to be 1810 nM.

Consider `C/C=C/C[N+](C)(C)CCO` [compound 32, [(E)-but-2-enyl]-(2-hydroxyethyl)-dimethyl-ammonium], for which, in assay [1] (setting [3]), the IC50 is 899 nM.

As for `C#CC[N+](C)(C)C` [compound 33], the IC50 in assay [1] (setting [3]) worked out at 0.115 nM.

As for `C#CC[N+](C)(C)CC#C` [compound 34, dimethyl-bis(prop-2-ynyl)ammonium], the IC50 in assay [1] (setting [3]) is 2.65 nM.

Regarding `C=CC[N+](C)(C)CC#N` [compound 35, allyl-(cyanomethyl)-dimethyl-ammonium], in assay [1] (setting [3]), the IC50 worked out at 64.4 nM.

As for `C#CC[N+](C)(C)CC#N` [compound 36, cyanomethyl-dimethyl-prop-2-ynyl-ammonium], the IC50 in assay [1] (setting [3]) was determined as 279 nM.

As for `C=CC[N+](C)(C)C` [compound 37], in assay [1] (setting [3]), the IC50 was 50000 nM.

For the compound `C#CC[N+](C)(CC#C)CC#C` [compound 38, methyl-tris(prop-2-ynyl)ammonium], the IC50 in assay [1] (setting [3]) was found to be 81000 nM.

Consider `C#CC[N+](CC#C)(CC#C)CC#C` [compound 39, tetrakis(prop-2-ynyl)ammonium], for which the IC50 in assay [1] (setting [3]) was 87900 nM.

For `C#CC[N+](C)(C)CCl` [compound 40, chloromethyl-dimethyl-prop-2-ynyl-ammonium], the IC50 in assay [1] (setting [3]) came to 0.0164 nM.

`C#CC[N+](C)(C)CBr` [compound 41, bromomethyl-dimethyl-prop-2-ynyl-ammonium]: in assay [1] (setting [3]), the IC50 was determined as 0.235 nM.

For the compound `C#CC[N+](C)(C)CI` [compound 42, iodomethyl-dimethyl-prop-2-ynyl-ammonium], the IC50 in assay [1] (setting [3]) worked out at 0.463 nM.

As for `C#CC[N+](C)(C)CCBr` [compound 43, 2-bromoethyl-dimethyl-prop-2-ynyl-ammonium], the IC50 in assay [1] (setting [3]) came out at 140 nM.
